Results: US20250099420A1, “SMALL MOLECULE MODULATORS OF GPR139 COMPLEX” (University of Florida Research Foundation, Incorporated, priority 2022, published 2025)
Like-named read-outs stand apart in the source and are kept apart here.

Assays:
[1] = system: parental HEK cells; assay: HEK parental Agonist Counterscreen Assay (non-transfected cells); type: cell-based; details: for Averaged Max % Response (±St. Dev.): activity relative to known control
From the text: The high control for the agonist counterscreen was Forskolin not acetylcholine.

[2] = molecular target: T1, GPR139 (Homo sapiens, UniProt Q6DWJ6); assay: GPR139 Agonist titration / agonist counterscreen assay (calcium detection, HEK-GPR139 cells); type: cell-based; set-up: expressed in transfected cells; host or cells: HEK Aequorin cells, Maxcyte transient transfection; details: GPR139 Agonist Activity; for Averaged Max % Response (±St. Dev.): activity relative to known control; for EC50: read-out: EC50
T1 sequence (Q6DWJ6 1-353): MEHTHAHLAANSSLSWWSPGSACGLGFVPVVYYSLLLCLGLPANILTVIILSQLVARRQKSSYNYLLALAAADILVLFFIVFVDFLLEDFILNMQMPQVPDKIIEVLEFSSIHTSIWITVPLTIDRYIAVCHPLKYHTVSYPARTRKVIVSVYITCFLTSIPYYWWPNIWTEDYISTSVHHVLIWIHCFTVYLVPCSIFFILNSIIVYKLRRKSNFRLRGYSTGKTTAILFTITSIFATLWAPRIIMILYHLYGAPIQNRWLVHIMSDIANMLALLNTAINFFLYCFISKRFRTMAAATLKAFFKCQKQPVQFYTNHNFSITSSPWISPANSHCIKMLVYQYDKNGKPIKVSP
Method: GPR activity was assessed using a calcium detection assay. […] Negative control samples were treated with DMSO. […] Intracellular calcium was measured using Calcium 5.

[3] = Homo sapiens, HEK293, HEK Agonist Activity, parental non-transfected HEK cells
[4] = values printed in E-notation without unit
[5] = Homo sapiens, HEK293, HEK Agonist Activity section of Table 4 (parental HEK counterscreen)
[6] = HEK Agonist Activity section of Table 4 (parental HEK counterscreen)

Averaged Max % Response (±St. Dev.) [2] [%]	Lipophilic Efficiency (logD) ([2]; based on logD)	Lipophilic Efficiency (logP) ([2]; based on logP)	Efficiency Ligand ([2]; ligand efficiency)	EC50 [2, 4] [nM]	Lipophilic Efficiency (logD) ([1]; HEK Agonist Activity section)	Lipophilic Efficiency (logP) ([1]; HEK Agonist Activity section)	Hill Slope ([2]; fitted dose-response curve)	Efficiency Ligand [2]	Lipophilic Efficiency (logD) [2]	Lipophilic Efficiency (logP) [2]	EC50 ([2]; HEK-GPR139 cells) [nM]	Hill Slope [2]	Structure (SMILES)	Averaged Max % Response (±St. Dev.) ([1]; HEK Agonist Activity section) [%]	EC50 [1, 5] [nM]	EC50 [1, 6] [nM]	also measured
113.77 ± 7.21	5.60	5.48	0.53	> 0.703	–	–	–	–	–	–	–	–	CC(Oc1ccc(O)cc1Cl)C(=O)NNC(=O)c1cccc(F)c1 (stereo not shown) [SR-01000520454]	–	–	–	Lipophilic Efficiency (logD) ([1]; HEK Agonist Activity): 1.31; Lipophilic Efficiency (logP) ([1]; HEK Agonist Activity): 1.19; Averaged Max % Response (±St. Dev.) ([1]; HEK Agonist Activity): 15.83 ± 2.96%; EC50 [1, 3]: > 13800 nM
100.37 ± 4.50	3.80	3.75	0.39	114	1.71	1.66	0.87	–	–	–	–	–	CC(Oc1ccc(Cl)cc1Cl)C(=O)NNC(=O)COc1ccccc1 (stereo not shown) [SR-01000370374]	4.76 ± 6.67	> 14100	–	–
119.00 ± 5.31	4.08	4.08	0.46	31.6	–	–	0.27	–	–	–	–	–	Cc1c(Br)c([N+](=O)[O-])nn1CC(=O)NCCc1ccc(Cl)cc1 [SR-01000298170]	–	–	–	Lipophilic Efficiency (logD) ([1]; HEK Agonist Activity): 1.44; Lipophilic Efficiency (logP) ([1]; HEK Agonist Activity): 1.44; Averaged Max % Response (±St. Dev.) ([1]; HEK Agonist Activity): 10.66 ± 2.50%; EC50 [1, 3]: > 14100 nM
177.62 ± 11.26	–	–	–	–	3.35	3.35	–	0.47	3.74	3.74	> 4400	–	Nc1ccc2c(C(F)(F)F)cc(=O)oc2c1 [SR-01000597171]	92.06 ± 10.88	–	10700	Hill Slope ([1]; HEK Agonist Activity section): 2.90
66.69 ± 11.44	–	–	–	–	2.48	2.44	–	0.29	3.27	3.22	2300	0.69	COc1ccccc1NC(=O)C(=O)NNC(=O)COc1ccc(Br)cc1C [SR-01000325257]	−2.80 ± 2.96	> 14100	–	–
103.55 ± 8.13	6.11	6.11	0.44	14.3	–	–	1.13	–	–	–	–	–	COc1ccc(NC(=O)NCC2CC(=O)N(c3ccccc3)C2)cc1 (stereo not shown) [SR-01000912290]	–	–	–	Lipophilic Efficiency (logD) ([1]; HEK Agonist Activity): 3.12; Lipophilic Efficiency (logP) ([1]; HEK Agonist Activity): 3.12; Averaged Max % Response (±St. Dev.) ([1]; HEK Agonist Activity): 20.29 ± 5.75%; EC50 [1, 3]: > 14100 nM
116.44 ± 14.37	–	–	–	–	1.36	1.36	–	0.30	2.60	2.60	–	0.53	CC(CCC(=O)C12CC3CC(CC(C3)C1)C2)CCc1ccc2ccccc2c1 (stereo not shown) [SR-01000359546]	3.46 ± 3.80	> 14100	–	–
95.96 ± 5.70	6.98	4.61	0.54	131	4.95	2.58	1.09	–	–	–	–	–	O=C(c1ccccc1)C1CCCCC1S(=O)(=O)O (stereo not shown) [SR-01000197834]	18.65 ± 10.85	> 14100	–	–

The next lines start with the compound.

Structure (SMILES)	Averaged Max % Response (±St. Dev.) [2] [%]	Lipophilic Efficiency (logD) ([2]; based on logD)	Lipophilic Efficiency (logP) ([2]; based on logP)	Efficiency Ligand ([2]; ligand efficiency)	EC50 [2, 4] [nM]	Lipophilic Efficiency (logD) ([1]; HEK Agonist Activity section)	Lipophilic Efficiency (logP) ([1]; HEK Agonist Activity section)	Hill Slope ([2]; fitted dose-response curve)	Efficiency Ligand [2]	Lipophilic Efficiency (logD) [2]	Lipophilic Efficiency (logP) [2]	EC50 ([2]; HEK-GPR139 cells) [nM]	Hill Slope [2]	Averaged Max % Response (±St. Dev.) ([1]; HEK Agonist Activity section) [%]	EC50 [1, 5] [nM]	EC50 [1, 6] [nM]	also measured
COc1cccc(CNC(=O)Nc2ccc(-c3cn[nH]c3)cc2)c1 [SR-00000005253]	80.15 ± 4.78	4.08	4.08	0.39	202	2.23	2.23	0.64	–	–	–	–	–	−10.69 ± 5.73	> 14100	–	–
CN1CC[C@H](Oc2cc(-c3cn[nH]c3)ccc2NC(=O)N(Cc2ccccc2)C2CC2)C1.O=C(O)C(F)(F)F.O=C(O)C(F)(F)F [SR-00000007518]	91.59 ± 7.88	4.71	3.64	0.30	120	2.64	1.58	0.81	–	–	–	–	–	23.13 ± 2.30	–	> 14100	–
O=C(CN1N=C(c2ccc(Cl)cc2)CCC1=O)NCCN1CCc2ccccc2C1 [SR-01000145135]	81.84 ± 7.77	–	–	–	–	2.82	2.34	–	0.30	4.49	4.01	301	0.84	−17.80 ± 4.24	–	> 14100	–
COc1ccc(CNC(=O)Nc2ccc(-c3cn[nH]c3)cc2)cc1.O=C(O)C(F)(F)F [SR-00000005347]	110.92 ± 4.82	4.10	4.10	0.39	189	2.23	2.23	0.58	–	–	–	–	–	11.55 ± 3.19	–	> 14100	–
Cc1ccc(Nc2cn[nH]c(=S)n2)c(C)c1 [SR-01000013346]	74.67 ± 0.55	–	–	–	–	2.37	1.95	–	0.54	3.66	3.24	743	0.99	−4.67 ± 3.34	> 14600	–	–
Cc1ccc(C)c(C(=O)CCC(=O)NNC(=O)CSc2nc3ccccc3o2)c1 [SR-01000073202]	119.67 ± 15.04	4.38	4.38	0.39	> 6.6	–	–	–	–	–	–	–	–	–	–	–	Lipophilic Efficiency (logD) ([1]; HEK Agonist Activity): 1.04; Lipophilic Efficiency (logP) ([1]; HEK Agonist Activity): 1.04; Averaged Max % Response (±St. Dev.) ([1]; HEK Agonist Activity): 12.21 ± 5.38%; EC50 [1, 3]: > 14500 nM
COc1ccc2cc(CCNC(=O)/C=C\c3ccc4c(c3)OCO4)c(=O)[nH]c2c1 [SR-01000124392]	80.01 ± 6.26	–	–	–	–	2.31	2.31	–	0.28	3.17	3.17	2000	0.49	5.97 ± 7.64	–	> 14100	–
CC(C)CCNC(=O)CN1CCN(Cc2ccc(F)cc2Cl)C1=O [SR-01000161248]	106.33 ± 15.91	–	–	–	–	2.51	2.51	–	0.38	4.17	4.17	309	1.12	−6.23 ± 14.84	–	> 14100	–
O=C(CN1C(=O)NC2(CCc3ccccc32)C1=O)Nc1cccc(Cl)c1 (stereo not shown) [SR-01000069699]	116.05 ± 3.28	4.18	4.18	0.38	108	2.03	2.03	0.54	–	–	–	–	–	12.32 ± 5.16	> 15200	–	–
Cc1ccc2c(CC(=O)NNC(=O)CC34CC5CC(CC(C5)C3)C4)coc2c1 [SR-01000054849]	93.14 ± 10.62	3.67	3.67	0.35	81.6	1.41	1.41	0.47	–	–	–	–	–	1.19 ± 3.75	–	> 14800	–
CN(C)CCOc1cc(NC(=O)C2COc3ccccc3C2)ccc1-c1cn[nH]c1.O=C(O)C(F)(F)F.O=C(O)C(F)(F)F (stereo not shown) [SR-00000004123]	79.85 ± 11.38	–	–	–	–	3.26	1.93	–	0.28	4.48	3.15	847	0.37	3.68 ± 4.29	–	> 14100	–
